Experimental findings from patent US12729192B2, “CDK9 inhibitor and use thereof” (PHARMABLOCK SCIENCES (NANJING), INC., priority 2020, dated 2026) are described below.

For one test, the target named is T1, CDK7 (Homo sapiens, UniProt P50613).
T1 construct: purchased Carna Biosciences, Inc
Description: CDK7 kinase activity inhibition (ADP-Glo). It is filed as biochemical. Particulars: 10 μM ATP, 2 h at room temperature. In general terms: ADP-Glo turns the ADP formed in a reaction into a luminescent signal.

Another test has as its target CDK9 (Homo sapiens, UniProt P50750). Description: CDK9 kinase activity inhibition (ADP-Glo). Type of test: biochemical. As to conditions: 10 μM ATP, 2 h at room temperature.
Another test has as its system MOLM-13 cells. Description: Tumor cell proliferation inhibition experiment (CellTiter-Glo). It is filed as cell-based. As to conditions: Homo sapiens; acute myeloid leukemia cell line MOLM-13; 16 h incubation; CellTiter-Glo; read-out: MOLM-13 (nM) IC50, cell proliferation inhibition. From the text:
An acute myeloid leukemia (AML) cell line (MOLM-13) was purchased from NANJING COBIOER BIOSCIENCES CO., LTD. An RPMI1640 medium and a penicillin-streptomycin double-antibody were purchased from ThermoFisher (Waltham, MA, USA). Certified fetal bovine serum (FBS) was purchased from Biological Industries (Israel). A Corning 384-well cell culture plate was purchased from CORNING (USA). Cell-Titer Glo® was purchased from Promega Corporation (Madison, WI, USA).
To evaluate the ability of the synthetic compound to inhibit the proliferation of MOLM-13 cells, MOLM-13 cells at an exponential growth stage were inoculated at a density of 500,000 cell/mL in the RPMI1640 medium containing 20% bovine serum and 1% penicillin-streptomycin double-antibody, and the 384-well plate contained 20 μL per well and placed overnight in an 37° C., 5% CO2 incubator. Compound powder was dissolved in DMSO to prepare a storage mother liquor with a concentration of 2 mM, and 12 dilutions with three-fold gradient concentrations were further prepared. 1 μL of gradient-diluted DMSO solution was added to 99 μL of cell culture medium (the final maximum concentration of the compound in the assay was 10 uM and the final concentration of DMSO was 0.5%). 20 μL of compound solution in the medium was added at gradients to each cell-coated test well of the 384-well plate. After the compound solution was added, the 384-well plate was incubated for 16 h in a 37° C., 5% CO2 incubator. Cell viability was determined by quantifying ATPs present in test wells using the CellTiter-Glo kit from Promega (Madison, WI, USA). After 20 minutes of incubation, readings were obtained under a chemical luminescence procedure using Tecan's Spark multifunctional plate reader. The concentration (IC50 value) of the compound at which the cell survival rate was inhibited by 50% was determined using an S-shaped dosage response model (variable slope, four parameters) in Prism 7 (LaJolla, CA).
On the technique in general: In ATP-based viability assays light output follows the ATP content of the culture.

In another test the target is T2, CDK1 (Homo sapiens, UniProt P06493).
T2 construct: purchased Carna Biosciences, Inc
Description: CDK1 kinase activity inhibition (ADP-Glo). Type of test: biochemical. As to conditions: 50 μM ATP, 2 h at room temperature. The protocol:
CDK9 kinase was manufactured by the company or commercially available. CDK1, CDK2 and CDK7 were purchased from Carna Biosciences, Inc. ADP-Glo™ kit was purchased from Promega Corporation. Dithiothreitol (DTT), Tween-20, dimethylsulfoxide (DMSO), bovine serum albumin (BSA) and Tris base were obtained from Sigma at the available highest level of purity.
General procedures for CDK inhibition determination: The determination was performed in a buffer consisting of 50 μM DTT, 0.1% BSA, 40 mM Tris-HCl pH=7.5 and 20 mM MgCl2. The compound dissolved in DMSO and CDK enzymes were diluted with the buffer. 1 μL of the compound solution in 5% DMSO and 2 μL of the CDK enzyme solution were added to a white low-volume 384-well microtiter plate and incubated for 20 min at room temperature. Ultra pure ATP and the substrate polypeptide (purchased from GenScript Biotech Corporation) were diluted together into the buffer and added to a mixed solution of the compound and the enzyme, 2 μL per well. They were incubated for 2 h at room temperature.
After the reaction was completed, 5 μL of ADP-Glo™ reagent was added to each well and incubated for 40 min at room temperature, and then 10 μL of test reagent was added to each well and incubated for 30 mi at room temperature. Chemical luminescence values were measured by using a Tecan (Männedorf, Switzerland) multifunctional plate reader Spark for plate reading. The IC50 value of the inhibitor was obtained by fitting the chemical luminescence intensity ratio in the S-shaped dosage reaction curve using Prism 7 (La Jolla, 15 CA) relative to the concentration of the inhibitor.

The target in a further test is T3, CDK2 (Homo sapiens, UniProt P24941).
T3 construct: purchased Carna Biosciences, Inc
Description: CDK2 kinase activity inhibition (ADP-Glo). It is filed as biochemical. Particulars: 10 μM ATP, 2 h at room temperature.

T2 sequence (P06493 whole entry): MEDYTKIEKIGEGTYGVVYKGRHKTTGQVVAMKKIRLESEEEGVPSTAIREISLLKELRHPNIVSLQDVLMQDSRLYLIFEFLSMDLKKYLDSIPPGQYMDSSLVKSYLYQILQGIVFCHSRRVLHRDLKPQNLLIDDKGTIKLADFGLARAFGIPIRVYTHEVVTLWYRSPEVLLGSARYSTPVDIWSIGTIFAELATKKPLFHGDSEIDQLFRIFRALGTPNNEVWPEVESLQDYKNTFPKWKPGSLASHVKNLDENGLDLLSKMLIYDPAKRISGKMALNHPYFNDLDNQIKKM
T2 sequence (P14635 whole entry partner): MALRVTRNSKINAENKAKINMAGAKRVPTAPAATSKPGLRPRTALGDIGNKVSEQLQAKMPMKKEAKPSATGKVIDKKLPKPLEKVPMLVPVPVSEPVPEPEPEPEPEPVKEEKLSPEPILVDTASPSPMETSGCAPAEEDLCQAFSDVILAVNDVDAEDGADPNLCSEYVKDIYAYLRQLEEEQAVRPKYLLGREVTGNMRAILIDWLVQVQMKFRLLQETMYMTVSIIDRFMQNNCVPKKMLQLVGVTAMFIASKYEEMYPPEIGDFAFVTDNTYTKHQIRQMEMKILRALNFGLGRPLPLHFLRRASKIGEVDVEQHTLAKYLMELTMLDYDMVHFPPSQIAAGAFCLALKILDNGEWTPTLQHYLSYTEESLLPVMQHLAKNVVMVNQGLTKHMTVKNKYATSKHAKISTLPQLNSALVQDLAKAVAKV
T1 sequence (P50613 whole entry): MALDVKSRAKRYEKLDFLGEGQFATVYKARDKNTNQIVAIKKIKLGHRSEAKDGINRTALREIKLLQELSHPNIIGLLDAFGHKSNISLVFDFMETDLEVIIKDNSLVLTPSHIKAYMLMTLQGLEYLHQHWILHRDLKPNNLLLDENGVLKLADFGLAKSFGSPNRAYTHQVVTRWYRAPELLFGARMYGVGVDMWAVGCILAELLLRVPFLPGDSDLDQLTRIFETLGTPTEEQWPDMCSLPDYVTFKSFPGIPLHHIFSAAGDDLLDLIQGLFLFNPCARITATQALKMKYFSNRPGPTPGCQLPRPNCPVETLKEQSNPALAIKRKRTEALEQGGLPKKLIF
T1 sequence (P51946 whole entry partner): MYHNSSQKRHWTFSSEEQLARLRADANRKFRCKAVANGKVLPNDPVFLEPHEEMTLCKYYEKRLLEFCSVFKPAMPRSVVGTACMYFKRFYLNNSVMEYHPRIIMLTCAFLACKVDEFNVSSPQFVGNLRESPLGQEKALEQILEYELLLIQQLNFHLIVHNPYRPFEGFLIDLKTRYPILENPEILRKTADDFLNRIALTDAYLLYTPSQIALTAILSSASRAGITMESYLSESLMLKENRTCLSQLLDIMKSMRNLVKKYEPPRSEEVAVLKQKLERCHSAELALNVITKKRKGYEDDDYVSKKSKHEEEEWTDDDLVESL
T1 sequence (P51948 whole entry partner): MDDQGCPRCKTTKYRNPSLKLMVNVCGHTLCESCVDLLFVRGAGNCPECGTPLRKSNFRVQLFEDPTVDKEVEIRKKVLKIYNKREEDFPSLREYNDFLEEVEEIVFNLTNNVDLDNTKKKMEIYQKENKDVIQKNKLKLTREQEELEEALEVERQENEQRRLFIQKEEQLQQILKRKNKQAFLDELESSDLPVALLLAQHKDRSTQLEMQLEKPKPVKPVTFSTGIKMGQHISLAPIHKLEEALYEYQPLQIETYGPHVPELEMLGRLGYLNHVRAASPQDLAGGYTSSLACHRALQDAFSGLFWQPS
Chain of CDK9 (P50750 whole entry): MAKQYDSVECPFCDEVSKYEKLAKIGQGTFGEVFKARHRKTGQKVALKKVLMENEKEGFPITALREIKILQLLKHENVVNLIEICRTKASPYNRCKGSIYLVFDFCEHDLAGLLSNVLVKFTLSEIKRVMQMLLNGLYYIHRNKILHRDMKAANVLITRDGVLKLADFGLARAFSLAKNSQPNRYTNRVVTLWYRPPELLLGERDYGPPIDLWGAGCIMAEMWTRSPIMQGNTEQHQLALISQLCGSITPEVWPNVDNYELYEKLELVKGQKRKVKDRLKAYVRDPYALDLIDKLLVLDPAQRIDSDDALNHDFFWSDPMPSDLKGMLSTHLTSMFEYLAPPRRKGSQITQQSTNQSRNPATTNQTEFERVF
Chain of CDK9 (O60563 whole entry partner): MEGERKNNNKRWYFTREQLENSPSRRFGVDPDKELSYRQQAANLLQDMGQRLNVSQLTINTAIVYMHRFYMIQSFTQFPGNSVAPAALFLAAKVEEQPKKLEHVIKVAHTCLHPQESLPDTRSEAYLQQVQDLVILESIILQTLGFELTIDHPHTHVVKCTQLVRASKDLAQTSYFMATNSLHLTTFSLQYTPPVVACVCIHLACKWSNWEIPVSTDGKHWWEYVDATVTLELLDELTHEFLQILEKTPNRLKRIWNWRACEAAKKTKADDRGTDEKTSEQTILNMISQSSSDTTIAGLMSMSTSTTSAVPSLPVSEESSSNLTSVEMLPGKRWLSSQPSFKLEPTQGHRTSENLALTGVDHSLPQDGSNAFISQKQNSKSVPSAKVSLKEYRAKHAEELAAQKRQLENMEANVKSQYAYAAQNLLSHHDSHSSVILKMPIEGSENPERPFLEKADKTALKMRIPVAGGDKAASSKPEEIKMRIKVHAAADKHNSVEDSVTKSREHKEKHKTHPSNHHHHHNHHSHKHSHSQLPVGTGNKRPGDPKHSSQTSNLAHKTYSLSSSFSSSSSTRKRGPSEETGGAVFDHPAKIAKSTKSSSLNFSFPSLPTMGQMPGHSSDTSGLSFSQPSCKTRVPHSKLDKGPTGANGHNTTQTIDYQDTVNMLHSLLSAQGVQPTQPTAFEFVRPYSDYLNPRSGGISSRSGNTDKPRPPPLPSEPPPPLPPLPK

Take `CC(=O)NC[C@H]1CCC(F)(F)CN1C(=O)c1nc(Nc2cc(C(F)(F)F)ccn2)ccc1C` [Compound 30, (R)—N-((5,5-difluoro-1-(3-methyl-6-((4-(trifluoromethyl)pyridin-2-yl)amino)pyridine-2-carbonyl)piperidin-2-yl)methyl)acetamide]: the IC50 on CDK7 turned out to be 3180 nM; against CDK9, 11.7 nM; in the test on MOLM-13 cells, 11.3 nM; at CDK1 it was 291 nM; at CDK2 it was 99.3 nM.

On to `Cc1ccc(Nc2cc(OC(F)(F)F)ccn2)nc1C(=O)N1CC(F)(F)CC[C@@H]1CN` [Compound 34, (R)-(2-(aminomethyl)-5,5-difluoropiperidin-1-yl)(3-methyl-6-((4-(trifluoromethoxy)pyridin-2-yl)amino)pyridin-2-yl)methanone], for which the IC50 was determined as 479 nM against CDK7; 3 nM at CDK9; 63.1 nM with MOLM-13 cells; 261 nM on CDK1; 30 nM on CDK2.

In the case of `NC[C@H]1CCC(F)(F)CN1C(=O)c1nc(Nc2cc(OC(F)(F)F)ccn2)ccc1F` [Compound 67, (R)-(2-(aminomethyl)-5,5-difluoropiperidin-1-yl)(3-fluoro-6-((4-(trifluoromethoxy)pyridin-2-yl)amino)pyridin-2-yl)methanone], the IC50 against CDK7 worked out at 656 nM; against CDK9, 6.8 nM; with MOLM-13 cells, 66.8 nM; at CDK1, 140 nM; at CDK2, 61.2 nM.
